Measured values published in publication PMC4959957 (British Journal of Pharmacology, 2016).

Molecular target: T1, Asu-ACR-16 (Ascaris suum, UniProt A0A0K0QSL7)
T1 sequence (A0A0K0QSL7 24-504): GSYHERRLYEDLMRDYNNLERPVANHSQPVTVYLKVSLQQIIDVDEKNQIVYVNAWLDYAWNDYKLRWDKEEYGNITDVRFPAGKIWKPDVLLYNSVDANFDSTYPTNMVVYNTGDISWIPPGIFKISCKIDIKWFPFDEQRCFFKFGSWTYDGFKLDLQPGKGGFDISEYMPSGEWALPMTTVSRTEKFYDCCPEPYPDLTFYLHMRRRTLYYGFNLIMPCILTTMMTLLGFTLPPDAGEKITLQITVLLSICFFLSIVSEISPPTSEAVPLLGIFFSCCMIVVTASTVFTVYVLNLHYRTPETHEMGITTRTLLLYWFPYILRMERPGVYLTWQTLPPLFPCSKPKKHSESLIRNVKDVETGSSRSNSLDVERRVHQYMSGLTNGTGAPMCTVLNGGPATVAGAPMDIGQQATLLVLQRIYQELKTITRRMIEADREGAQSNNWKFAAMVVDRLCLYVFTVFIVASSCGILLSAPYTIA
Assay: two-electrode voltage clamp, agonist concentration-response in Xenopus oocytes
Type: cell-based

SMILES	EC50 [µM]
CC(=O)OCC[N+](C)(C)C [ACh]	5.9 ± 0.1
CN1CCC[C@H]1c1cccnc1 [nic, nicotine]	4.5 ± 0.2
